Reference: patent US10191050B2, “Rationale, methods, and assays for identifying human and non-human primate taste specific genes and use thereof in taste modulator and therapeutic screening assays” (SENOMYX, INC., priority 2007, dated 2019)

System: perceived human salt intensity
Experiment: Human salty taste test: effect on perceived salt intensity (experiments by the inventors)
Assay type: in vivo
Description: Unlike other mammals, amiloride only slightly reduces the intensity of sodium chloride taste, i.e., by about 15-20% when used at concentrations that specifically modulate ENaC function (Halpern, B. P. (1998) Neuroscience and Behavioral Reviews. 23: 5-47). […] Thus, additional non-ENaC genes are likely involved in human salty taste.

Structure (SMILES): N=C(N)NC(=O)c1nc(Cl)c(N)nc1N [amiloride]
- effect on perceived human salt intensity (tested at 300-fold above IC50 for alpha beta gamma ENaC (10-fold over IC50 for delta beta gamma ENaC)): did not elicit a significant effect

Structure (SMILES): NC(=Nc1ccccc1)NC(=O)c1nc(Cl)c(N)nc1N [phenamil]
- effect on perceived human salt intensity (tested at 3000-fold above IC50 for alpha beta gamma ENaC (100-fold over IC50 for delta beta gamma ENaC)): did not elicit a significant effect
